Values quoted from earlier work in US20250073243A1, “LOW BACK PAIN TREATMENT” (Persica Pharmaceuticals Ltd., priority 2021, published 2025).
Values after ≈ are worked out from the molar mass of the structure shown.

Legend:
[1] = oral administration; patients with chronic LBP

Compound: CC(=O)NC[C@H]1CN(c2ccc(N3CCOCC3)c(F)c2)C(=O)O1 [linezolid, (S)—N-((3-(3-fluoro-4-morpholinophenyl)-2-oxooxazolidin-5-yl)methyl) acetamide]
- Cmax observed for a standard linezolid dose (standard 600 mg linezolid dose): approximately 15 μg/ml
- half-life of standard linezolid administration (standard linezolid administration): 4 to 5 h
- minimum inhibitory concentration (MIC) (Gram-positive bacteria): 1 µg/mL (≈ 2.96 µM)

Compound: amoxicillin-clavulanate
- improvement in outcome measures [1]: clinically important and statistically significant (p<0.001) improvement in all outcome measures
